Results as given in patent US4642309A, “Indolin-2-one derivatives preparation thereof and intermediates for the preparation thereof” (Boehringer Mannheim GmbH, priority 1983, dated 1987).
Where two headings read alike, the source gives them in different places.

Legend:
[1] = tested on: cardiac β-receptors (beta 1); assay: Beta-receptor blocking activity: inhibition of isoprenaline (1 mcg/kg i.v.) induced heart rate increase (beta 1-blockage) in rabbits; type: in vivo, rabbit; conditions: for β1-Blockade ID30 fcor / β1-Blockade ID50 fcor: i.v., rabbits; for β1-Blockade ID30 fcor: 30% inhibition of isoprenaline effect on heart rate; for β1-Blockade ID50 fcor: 50% inhibition of isoprenaline effect on heart rate
Protocol: Rabbits were fixed in wooden cages and the blood pressure derived using a catheter placed in the lateral ear artery (details as under 2.). From the blood pressure pulsations, the heart rate was digitally read using an integrator. The beta-receptor blocking quality was determined by measuring inhibitory action against 1 mcg/kg i.v. isoprenaline.

[2] = tested on: CSE reflex (arterial blood pressure); assay: Vasodilating activity: weakening of the carotid occlusion (CSE) reflex blood pressure rise in anesthetized rabbits; type: in vivo, rabbit; conditions: for ED (30 mm Hg): Oryctolagus cuniculus, iv; for BQ (ID50 fcor / ED-30 mm Hg): ratio of beta-blocking ID50 to vasodilating ED-30
Protocol: Rabbits were anesthetized with 26%-urethane 5 ml/kg i.v. For a continual measurement of the arterial blood pressure a catheter was implanted into the Arteria femoralis. The blood pressure was measured by means of an electromechanical pressure transducer (Statham P 23/Db). The impulses were registered on a direct printer and after calibration evaluated with a mercury manometer. After determining the starting value, both carotid arteries (Aa. carotides) were occluded for 2 min and thereby the blood pressure temporarily raised (Carotis-Sinus-Relief Reflex-CSE). Following that, the substances were injected in increasing doses and 8 min. later the CSE reflex induced again. In periods of 15 min each, in logarithmically rising dosage (factor 2), the test substance was injected again and the CSE value induced again. Substances which under these conditions weaken the rise of the blood pressure under CSE can be regarded as vasodilating. To estimate the blood pressure lowering quality, the dose was calculated which weakens the CSE reflex by 30 mm Hg (ED-30 mm Hg).

[3] = Tolerability of i.v. doses; conditions: in vivo, iv
[4] = dose weakening the CSE reflex by 30 mm Hg, anesthetized rabbits, read-out: Vasodilatation CSE ED-30
[5] = statement in text on reference substances, read-out: ED-30 (vasodilating quality)
[6] = read-out: Vasodilatation CSE ED-30

SMILES	beta-blocking activity (in words) [1]	β1-Blockade ID30 fcor [1]	β1-Blockade ID50 fcor [1]	vasodilating quality (in words) [2]	ED (30 mm Hg) [2, 4] [mg/kg]	ED (30 mm Hg) [2, 5] [mg/kg]	BQ (ID50 fcor / ED-30 mm Hg) [2]	ED (30 mm Hg) [2, 6] [mg/kg]	MTD ([3]; not tolerated at all, read-out: dose above which not tolerated at all) [mg/kg]	MTD ([3]; poorly tolerated, read-out: dose above which poorly tolerated) [mg/kg]	ED (30 mm Hg) ([2]; read-out: ED-30 (vasodilating quality)) [mg/kg]
COc1ccc(CCNCC(O)COc2cccc3c2CC(=O)N3)cc1 (stereo not drawn) [BM 12.946, 4-<2-hydroxy-3-[2-(4-methoxyphenyl)ethylamino]propoxy>oxindol, reference compound]	potent beta-blockers	46 µg/kg	188 µg/kg	do not have or at least do not have any relevantly vasodilating quality	9.13	> 9	0,02				
CC(C)NCC(O)COc1cccc2c1CC(=O)N2 (stereo not drawn) [BM 14.171, 4-(2-hydroxy-3-isopropylaminopropoxy)oxindol, reference compound]	potent beta-blockers	1,2 mcg/kg	4,3 mcg/kg	do not have or at least do not have any relevantly vasodilating quality	11.6	> 9	0,0004				
CC(C)NCC(O)COc1cccc2c1C(=Cc1ccccc1O)C(=O)N2 (stereo not drawn) [Example 1a, 4-(2-hydroxy-3-isopropylaminopropoxy)-3-(2-hydroxybenzylidene)-indolin-2-one]		98 µg/kg	317 µg/kg		2.71		0,12				
CSc1ccc(C=C2C(=O)Nc3cccc(OCC(O)CNC(C)C)c32)c(O)c1 (stereo not drawn) [Example 1d, 4-(2-hydroxy-3-isopropylaminopropoxy)-3-(2-hydroxy-4-methylthiobenzylidene)-indolin-2-one]		21 µg/kg	46 µg/kg		1.48		0,03				
O=C(O)c1ccccc1.O=C1Nc2cccc(OCC(O)CNCCOc3ccc(O)cc3)c2C1=Cc1ccccc1O (stereo not drawn) [Example 1p, 4-{2-hydroxy-3-[2-(4-hydroxyphenoxy)-ethylamino]-propoxy}-3-(2-hydroxybenzylidene)-indolin-2-one benzoate]		192 µg/kg	932 µg/kg				1,24	0.75			
O=C1Nc2cccc(OCC(O)CNCCOc3ccc(O)cc3)c2C1=Cc1ccccc1C(=O)O (stereo not drawn) [Example 1r, 4-{2-hydroxy-3-[2-(4-hydroxyphenoxy)-ethylamino]-propoxy}-3-(2-carboxybenzylidene)-indolin-2-one]		205 µg/kg	823 µg/kg		2.03		0,41				
O=C1Nc2cccc(OCC(O)CNCCOc3ccccc3)c2C1=Cc1ccn[nH]1 (stereo not drawn) [Example 1u, 4-[2-hydroxy-3-(2-phenoxyethylamino)-propoxy]-3-(pyrazol-5-yl)-methyleneindolin-2-one]		9,9 mcg/kg	58 µg/kg		0.331		0,18				
O=C1Nc2cccc(OCC(O)CNCCOc3ccc(O)cc3)c2C1Cc1ccccc1O (stereo not drawn) [Example 7d, 4-{2-hydroxy-3-[2-(4-hydroxyphenoxy)-ethylamino]-propoxy}-3-(2-hydroxybenzyl)-indolin-2-one cyclohexylsulphaminate]		27 µg/kg	85 µg/kg		0.97		0,09				
O=C(O)/C=C/C(=O)O.O=C1Nc2cccc(OCC(O)CNCCOc3ccc(O)cc3)c2C1Cc1ccn[nH]1 (stereo not drawn) [Example 7e, 4-{2-hydroxy-3-[2-(4-hydroxyphenoxy)-ethylamino]-propoxy}-3-(pyrazol-5-yl-methyl)-indolin-2-one fumarate]		65 µg/kg	254 µg/kg		0.54		0,47				
O=C(O)/C=C/C(=O)O.O=C1Nc2cccc(OCC(O)CNCCOc3ccccc3)c2C1Cc1ccn[nH]1 (stereo not drawn) [Example 7f, 4-[2-hydroxy-3-(2-phenoxyethylamino)-propoxy]-3-(pyrazol-5-yl-methyl)-indolin-2-one fumarate]		334 µg/kg	1020 µg/kg		0.43		2,37				
CC(C)NCC(O)COc1cccc2ccccc12 (stereo not drawn) [Propranolol, 1-(isopropylamino)-3-(1-naphthyloxy)-2-propanol, reference compound]	potent beta-blockers	126 µg/kg		do not have or at least do not have any relevantly vasodilating quality			0,01	30	> 30	> 10	> 9
